What is called inhibition is the percentage by which the read-out fell short of the control.

The subject of assay [1] is HCT116 (human colon tumor). As to the kind of experiment: In vitro cytotoxicity. The settings on record: for inhibition at 10 µM: HCT-116, HCT116, 10^−5 M, read-out: % of cellular growth inhibition; for inhibition at 1 µM: HCT-116, HCT116, 10^−6 M, read-out: % of cellular growth inhibition (converted). Format: cell-based. How it is done:
(§1) In vitro cytotoxicity was assayed on three cell lines—KB (human mouth carcinoma), MCR5 (human lung fibroblast) and HCT116 (human colon tumor). Results are presented in table III as % of cellular growth inhibition in presence of 10^−5 M and 10^−6 M of the tested bis-indolic derivatives.

The test system of assay [2] is KB (human mouth carcinoma). The assay can be described thus: In vitro cytotoxicity. Format: cell-based. Particulars: KB; for inhibition at 10 µM: 10^−5 M, read-out: % of cellular growth inhibition; for inhibition at 1 µM: 10^−6 M, read-out: % of cellular growth inhibition (converted). As for the experimental part: as §1
For assay [3], the system named is MRC5 (human lung fibroblast). As to the kind of experiment: In vitro cytotoxicity. It counts as cell-based. The settings on record: for inhibition at 10 µM: MRC5, 10^−5 M, read-out: % of cellular growth inhibition; for inhibition at 1 µM: MRC5, 10^−6 M, read-out: % of cellular growth inhibition (converted). As for the experimental part:
as §1

Another assay has as its system S. epidermidis CIP 81.55. As to the kind of experiment: MIC microdilution (Table I-1). Particulars: Staphylococcus epidermidis, CIP81, read after 18 hours, read-out: MIC. It counts as cell-based, Staphylococcus epidermidis. How it is done: (§2) The microdilution method recommended by the Clinical and Laboratory Standard Institute [M07-A8, Vol. 29, N^o 2] was used. The activity of indolic compounds was tested against 29 bacterial strains belonging to 17 different species and 12 different genera (Staphylococcus, Streptococcus, Enterococcus, Listeria, Bacillus, Haemophilus, Escherichia, Klebsiella, Enterobacter, Serratia, Pseudomonas, and Acinetobacter). Bacterial inocula were prepared in Mueller Hinton broth (MH2, bioMerieux, Marcy L'Etoile, France), supplemented with 10% sheep blood for fastidious species (i.e., Streptococcus pneumoniae and Haemophilus influenzae). They were dispensed in 96 well microtiter plates (5×10^5 CFU/ml of final inoculum). Indolic compounds were added to the wells as to obtain two-fold serial concentrations (0.50-128 mg/L of final concentrations). Plates were incubated at 37° C. in ambient air, or at 37° C. in 5% CO2 enriched atmosphere for fastidious species. […] Drug-free cultures served as growth controls. Cultures receiving gentamicin, ciprofloxacin or cefotaxime served as positive controls.
Background: Dilution methods test growth across graded concentrations, often in twofold steps.

Assay [4] has as its system S. epidermidis ATCC 12228. The assay can be described thus: MIC microdilution (Table I-1). Format: cell-based, Staphylococcus epidermidis. Particulars: Staphylococcus epidermidis, ATCC12228, read after 18 hours, read-out: MIC. How it is done: as §2
For assay [5], the system named is S. epidermidis CIP 103627. As to the kind of experiment: MIC microdilution (Table I-1). It counts as cell-based, Staphylococcus epidermidis. The settings on record: Staphylococcus epidermidis, CIP103627, read after 18 hours, read-out: MIC. As for the experimental part:
as §2

The next assay has as its system S. aureus ATCC 9144. The assay can be described thus: MIC microdilution (Table I-1). It counts as cell-based, Staphylococcus aureus. Particulars: Staphylococcus aureus, ATCC9144, read after 18 hours, read-out: MIC. As for the experimental part: as §2
For the next assay, the system named is S. aureus ATCC 29213. The assay can be described thus: MIC microdilution (Table I-1). It counts as cell-based, Staphylococcus aureus. Particulars: Staphylococcus aureus, ATCC29213, read after 18 hours, read-out: MIC. As for the experimental part:
as §2

A further assay deals with S. aureus ATCC 6538. As to the kind of experiment: MIC microdilution (Table I-1). Format: cell-based, Staphylococcus aureus. The settings on record: Staphylococcus aureus, ATCC6538, read after 18 hours, read-out: MIC. As for the experimental part: as §2
Assay [6] relates to S. aureus ATCC 33592 (MRSA). As to the kind of experiment: MIC microdilution (Table I-1). Format: cell-based, Staphylococcus aureus. The settings on record: Staphylococcus aureus, read after 18 hours, read-out: MIC. How it is done: as §2
The test system of another assay is S. aureus CIP 103428. The assay can be described thus: MIC microdilution (Table I-1). It counts as cell-based, Staphylococcus aureus. The settings on record: Staphylococcus aureus, CIP103428, read after 18 hours, read-out: MIC. How it is done:
as §2

The subject of another assay is S. aureus SA-1199B. As to the kind of experiment: MIC microdilution (Table I-1). It counts as cell-based, Staphylococcus aureus. The settings on record: Staphylococcus aureus, SA1199B, 18 h. How it is done: as §2
A further assay relates to S. aureus CIP 65.6. As to the kind of experiment: MIC microdilution (Table I-1). It counts as cell-based, Staphylococcus aureus. The settings on record: Staphylococcus aureus, CIP65, read after 18 hours, read-out: MIC. How it is done:
as §2

For assay [7], the system named is S. aureus CIP 65.25 (MRSA). As to the kind of experiment: MIC microdilution (Table I-1). It counts as cell-based, Staphylococcus aureus. Particulars: Staphylococcus aureus, read after 18 hours, read-out: MIC. As for the experimental part: as §2
The test system of assay [8] is S. aureus ATCC 106414 (VISA). The assay can be described thus: MIC microdilution (Table I-1). It counts as cell-based, Staphylococcus aureus. Particulars: Staphylococcus aureus, read after 18 hours, read-out: MIC. As for the experimental part: as §2
The subject of a further assay is S. pneumoniae ATCC 6303. As to the kind of experiment: MIC microdilution (Table I-1). Format: cell-based, Streptococcus pneumoniae. The settings on record: Streptococcus pneumoniae, ATCC6303, read after 18 hours, read-out: MIC. How it is done:
as §2

For another assay, the system named is S. pneumoniae ATCC 49619. As to the kind of experiment: MIC microdilution (Table I-1). Format: cell-based. The settings on record: Streptococcus pneumoniae, ATCC49619, read after 18 hours. How it is done:
as §2

In assay [9] the test system is S. pyogenes (group A) CIP 104226. The assay can be described thus: MIC microdilution (Table I-1). Format: cell-based. The settings on record: Streptococcus pyogenes, CIP104226, read after 18 hours, read-out: MIC. As for the experimental part:
as §2

Assay [10] deals with Escherichia coli ATCC 25922. As to the kind of experiment: MIC microdilution (Table I-1). Format: cell-based. Particulars: ATCC25922, read after 18 hours. As for the experimental part:
as §2

The test system of a further assay is E. faecium CIP 54.32. The assay can be described thus: MIC microdilution (Table I-1). It counts as cell-based. The settings on record: Enterococcus faecium, CIP54, read after 18 hours, read-out: MIC. As for the experimental part:
as §2

Another assay relates to S. aureus ATCC 25923. As to the kind of experiment: MIC microdilution (Table I-1). Format: cell-based. Particulars: Staphylococcus aureus, ATCC25923, read after 18 hours. As for the experimental part: as §2
The subject of assay [11] is S. agalactiae (group B) ATCC 12400. As to the kind of experiment: MIC microdilution (Table I-1). It counts as cell-based. Particulars: Streptococcus agalactiae, ATCC12400, read after 18 hours, read-out: MIC. As for the experimental part: as §2
Assay [12] relates to Pseudomonas aeruginosa CIP 5933. As to the kind of experiment: MIC microdilution (Table I-1). Particulars: CIP5933, read after 18 hours. Format: cell-based. As for the experimental part: as §2
Assay [13] concerns Enterobacter cloacae ATCC 13047. As to the kind of experiment: MIC microdilution (Table I-1). Format: cell-based. The settings on record: ATCC13047, read after 18 hours. As for the experimental part: as §2
The subject of assay [14] is Acinetobacter baumanii ATCC 19606. The assay can be described thus: MIC microdilution (Table I-1). The settings on record: Acinetobacter baumannii, ATCC19606, read after 18 hours. It counts as cell-based. As for the experimental part:
as §2

The subject of assay [15] is Haemophilus influenzae ATCC 49766. As to the kind of experiment: MIC microdilution (Table I-1). Format: cell-based. Particulars: ATCC49766; Haemophilus influenzae ATCC 49766; read after 18 hours; read-out: MIC. As for the experimental part: as §2
In assay [16] the test system is Bacillus subtilis CIP 5262. As to the kind of experiment: MIC microdilution (Table I-1). The settings on record: CIP5262, read after 18 hours, read-out: MIC. Format: cell-based. As for the experimental part: as §2
For another assay, the system named is S. mitis CIP 103335. The assay can be described thus: MIC microdilution (Table I-1). Format: cell-based. Particulars: Streptococcus mitis, CIP103335, read after 18 hours, read-out: MIC. As for the experimental part: as §2
The test system of another assay is E. faecalis ATCC 29212. As to the kind of experiment: MIC microdilution (Table I-1). It counts as cell-based. Particulars: Enterococcus faecalis, ATCC29212, read after 18 hours, read-out: MIC. As for the experimental part:
as §2

Assay [17] relates to Klebsiella pneumoniae ATCC 35657. As to the kind of experiment: MIC microdilution (Table I-1). It counts as cell-based. The settings on record: ATCC35657, read after 18 hours, read-out: MIC. How it is done: as §2
Assay [18] deals with Serratia marcescens CIP 103551. As to the kind of experiment: MIC microdilution (Table I-1). It counts as cell-based. Particulars: CIP103551, read after 18 hours. How it is done: as §2
Assay [19] relates to Listeria innocua CIP 80.11. As to the kind of experiment: MIC microdilution (Table I-1). Format: cell-based. The settings on record: CIP80, read after 18 hours, read-out: MIC. As for the experimental part: as §2

Values after ≈ are worked out from the molar mass of the structure shown.

Consider `CC(C)(C)OC(=O)NCC(NC(=O)C(=O)c1c[nH]c2cc(Br)ccc12)c1c[nH]c2ccccc12` (centres unmarked) [Compound 3, tert-Butyl(2-(2-(6-bromo-1H-indol-3-yl)-2-oxoacetamido)-2-(1H-indol-3-yl)ethyl) carbamate], for which the inhibition at 10 µM in assay [1] came to 97 ± 1%; in [2], 100 ± 1%; in assay [3], 98 ± 1%. The values for the inhibition at 1 µM in [1], in [2] and in assay [3] were 0%, 4% and 0%, respectively. The MIC is 8 µg/mL (≈ 15.2 µM) in the assay on S. epidermidis CIP 81.55; 4 µg/mL (≈ 7.61 µM) in [4]; more than 16 µg/mL in assay [5]; 4 µg/mL (≈ 7.61 µM) in the assay with S. aureus ATCC 9144; 2 µg/mL (≈ 3.81 µM) in the assay with S. aureus ATCC 29213; 4 µg/mL (≈ 7.61 µM) with S. aureus ATCC 6538. For the same compound, the MIC (in assay [6]; with S. aureus CIP 103428; in the assay on S. aureus SA-1199B; in the assay with S. aureus CIP 65.6; in [7]; in assay [8]) was 4 µg/mL (≈ 7.61 µM) throughout. Moreover, the MIC was 64 µg/mL (≈ 122 µM) with S. pneumoniae ATCC 6303; more than 128 µg/mL in the assay on S. pneumoniae ATCC 49619; 128 µg/mL (≈ 244 µM) in [9]; more than 128 µg/mL in assay [10]; 32 µg/mL (≈ 60.9 µM) with E. faecium CIP 54.32; 4 µg/mL (≈ 7.61 µM) in the assay with S. aureus ATCC 25923. Moreover, the MIC in assay [11] is 64 µg/mL (≈ 122 µM); in assay [12] it was more than 128 µg/mL; in [13], more than 128 µg/mL; in [14], more than 128 µg/mL; in assay [15], 32 µg/mL (≈ 60.9 µM); in assay [16] it was 128 µg/mL (≈ 244 µM). The MIC (with S. mitis CIP 103335; in the assay with E. faecalis ATCC 29212; in [17]; in assay [18]; in assay [19]) was more than 128 µg/mL in each case.
As to `O=C(C(=O)N1CCOCC1c1c[nH]c2ccc(Br)cc12)c1c[nH]c2ccc(Br)cc12` (centres unmarked) [Compound 6e, 1-(5-Bromo-1H-indol-3-yl)-2-(3-(5-bromo-1H-indol-3-yl)morpholino)ethane-1,2-dione], the inhibition at 10 µM in [1] was 24 ± 6%; in assay [2], 29 ± 6%; in [3] it was 0%. Further, the inhibition at 1 µM in [1] is 3%; in assay [2], 0%; in assay [3], 0%.
